Source: US20250228239A1, “MOLECULES HAVING PESTICIDAL UTILITY, AND INTERMEDIATES, COMPOSITIONS, AND PROCESSES, RELATED THERETO” (priority 2024, published 2025)
Where two headings read alike, the source gives them in different places.

What was measured:
[1] = test system: Beet Armyworm (Spodoptera exigua, LAPHEG); test: Bioassays on Beet Armyworm (BAW), 128-well diet tray assay; assay type: in vivo; conditions: Spodoptera exigua; for mortality at 50 µg/cm2: 168 h, second instar larvae, 50 μg/cm^2 of test molecule on artificial diet, 25° C., five to seven days, average of eight wells, read-out: BAW % Control (or Mortality) rating
Procedure, shortened: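 Diet-overlay assay: 50 μg/cm^2 compound applied in 90:10 acetone-water to artificial diet, allowed to dry, then infested with 1–5 L2 larvae/well; 8 wells/compound; covered, vented; 25° C., 14:10 L:D, 5–7 d; % mortality per well, averaged.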

[2] = test system: Cabbage Looper (Trichoplusia ni, TRIPNI); test: Bioassays on Cabbage Looper (CL), 128-well diet tray assay; assay type: in vivo; conditions: Trichoplusia ni; for mortality at 50 µg/cm2: 168 h, second instar larvae, 50 μg/cm^2 of test molecule on artificial diet, 25° C., five to seven days, average of eight wells, read-out: CL % Control (or Mortality) rating
Procedure, shortened: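 One to five second-instar larvae per well on artificial diet surface-treated with 50 μg/cm^2 test molecule (applied in 90:10 acetone-water, dried). Held 5–7 days at 25° C, 14:10 light-dark; percent mortality recorded per well and averaged over eight wells.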

[3] = Beet Armyworm, Table ABC / ABC-DP rating, read-out: BAW rating
[4] = Cabbage Looper, Table ABC / ABC-DP rating, read-out: CL rating
[5] = Table ABC: Biological Results, species BAW, read-out: BAW
[6] = Table ABC: Biological Results, species CL, read-out: CL

SMILES | pest or weed control at 50 µg/cm2 [1, 3] [%] | pest or weed control at 50 µg/cm2 [2, 4] [%] | mortality at 50 µg/cm2 [1] [%] | mortality at 50 µg/cm2 [2] [%] | pest or weed control at 50 µg/cm2 [1, 5] [%] | pest or weed control at 50 µg/cm2 [2, 6] [%]
CN(NC(=O)c1cc(NC(=O)[C@H]2[C@H](c3cc(Cl)cc(Cl)c3)C2(Cl)Cl)ccc1Cl)C(=O)CC(F)(F)F (relative stereo) [F2533, trans-2,2-Dichloro-N-(4-chloro-3-(2-methyl-2-(3,3,3-trifluoropropanoyl)hydrazine-1-carbonyl)phenyl)-3-(3,5-dichlorophenyl)cyclopropane-1-carboxamide] | 50 to 100 | 50 to 100 | – | – | – | –
CN(NC(=O)c1cc(NC(=O)[C@H]2[C@H](c3cc(Cl)cc(Cl)c3)C2(Cl)Cl)ccc1Cl)C(=O)C1CC1(F)F (relative stereo) [F2534, trans-2,2-Dichloro-N-(4-chloro-3-(2-(2,2-difluorocyclopropane-1-carbonyl)-2-methylhydrazine-1-carbonyl)phenyl)-3-(3,5-dichlorophenyl)cyclopropane-1-carboxamide] | 50 to 100 | 50 to 100 | – | – | – | –
O=C(NCC(F)(F)F)NNC(=O)c1cc(NC(=O)[C@H]2[C@H](c3cc(Cl)cc(Cl)c3)C2(Cl)Cl)ccc1Cl (relative stereo) [F2535, trans-2-(2-chloro-5-(2,2-dichloro-3-(3,5-dichlorophenyl)cyclopropane-1-carboxamido)benzoyl)-N-(2,2,2-trifluoroethyl)hydrazine-1-carboxamide] | 50 to 100 | 50 to 100 | – | – | – | –
CC(C)NC(=O)NNC(=O)c1cc(NC(=O)[C@H]2[C@H](c3cc(Cl)cc(Cl)c3)C2(Cl)Cl)ccc1Cl (relative stereo) [F2536, trans-2-(2-Chloro-5-(2,2-dichloro-3-(3,5-dichlorophenyl)cyclopropane-1-carboxamido)benzoyl)-N-isopropylhydrazine-1-carboxamide] | 50 to 100 | 50 to 100 | – | – | – | –
O=C(NNC(=S)NCC(F)(F)F)c1cc(NC(=O)[C@H]2[C@H](c3cc(Cl)cc(Cl)c3)C2(Cl)Cl)ccc1Cl (relative stereo) [F2539, trans-2,2-dichloro-N-(4-chloro-3-(2-((2,2,2-trifluoroethyl)carbamothioyl)hydrazine-1-carbonyl)phenyl)-3-(3,5-dichlorophenyl)cyclopropane-1-carboxamide] | 50 to 100 | 50 to 100 | – | – | – | –
CC(C)NC(=S)NNC(=O)c1cc(NC(=O)[C@H]2[C@H](c3cc(Cl)cc(Cl)c3)C2(Cl)Cl)ccc1Cl (relative stereo) [F2540, trans-2,2-Dichloro-N-(4-chloro-3-(2-(isopropylcarbamothioyl)hydrazine-1-carbonyl)phenyl)-3-(3,5-dichlorophenyl)cyclopropane-1-carboxamide] | 50 to 100 | 50 to 100 | – | – | – | –
O=C(NNCc1cc(F)ccc1F)c1cc(NC(=O)[C@H]2[C@H](c3cc(Cl)cc(Cl)c3)C2(Cl)Cl)ccc1Cl (relative stereo) [F2546, trans-2,2-Dichloro-N-(4-chloro-3-(2-(2,5-difluorobenzyl)hydrazine-1-carbonyl)phenyl)-3-(3,5-dichlorophenyl)cyclopropane-1-carboxamide] | 50 to 100 | 50 to 100 | – | – | – | –
CC(NNC(=O)c1cc(NC(=O)[C@H]2[C@H](c3cc(Cl)cc(Cl)c3)C2(Cl)Cl)ccc1Cl)c1ccccc1 (relative stereo) [F2548, trans-2,2-Dichloro-N-(4-chloro-3-(2-(1-phenylethyl)hydrazine-1-carbonyl)phenyl)-3-(3,5-dichlorophenyl)cyclopropane-1-carboxamide] | 50 to 100 | 50 to 100 | – | – | – | –
O=C(NNc1ccccc1)c1cc(NC(=O)[C@H]2[C@H](c3cc(Cl)cc(Cl)c3)C2(Cl)Cl)ccc1Cl (relative stereo) [F2556, trans-2,2-Dichloro-N-(4-chloro-3-(2-phenylhydrazine-1-carbonyl)phenyl)-3-(3,5-dichlorophenyl)cyclopropane-1-carboxamide] | 50 to 100 | 50 to 100 | – | – | – | –
O=C(NNc1ccc(Cl)c(Cl)c1)c1cc(NC(=O)[C@H]2[C@H](c3cc(Cl)cc(Cl)c3)C2(Cl)Cl)ccc1Cl (relative stereo) [F2560, trans-2,2-Dichloro-N-(4-chloro-3-(2-(3,4-dichlorophenyl)hydrazine-1-carbonyl)phenyl)-3-(3,5-dichlorophenyl)cyclopropane-1-carboxamide] | 50 to 100 | 50 to 100 | – | – | – | –
CC(C)(C)OC(=O)NNC(=O)c1cc(NC(=O)[C@H]2[C@H](c3cc(Cl)cc(Cl)c3)C2(Cl)Cl)ccc1Cl (relative stereo) [F2566, trans-tert-butyl 2-(2-chloro-5-(2,2-dichloro-3-(3,5-dichlorophenyl)cyclopropane-1-carboxamido)benzoyl)hydrazine-1-carboxylate] | 50 to 100 | 50 to 100 | 50 to 100 | 50 to 100 | – | –
O=C(NNC1CCC(F)(F)CC1)c1cc(NC(=O)[C@H]2[C@H](c3cc(Cl)cc(Cl)c3)C2(Cl)Cl)ccc1Cl (relative stereo) [F2569, trans-2,2-dichloro-N-(4-chloro-3-(2-(4,4-difluorocyclohexyl)hydrazine-1-carbonyl)phenyl)-3-(3,5-dichlorophenyl)cyclopropane-1-carboxamide] | 50 to 100 | 50 to 100 | 50 to 100 | 50 to 100 | – | –
O=C(NNCc1ccc(F)cc1)c1cc(NC(=O)[C@H]2[C@H](c3cc(Cl)cc(Cl)c3)C2(Cl)Cl)ccc1Cl (relative stereo) [F2570, trans-2,2-dichloro-N-(4-chloro-3-(2-(4-fluorobenzyl)hydrazine-1-carbonyl)phenyl)-3-(3,5-dichlorophenyl)cyclopropane-1-carboxamide] | 50 to 100 | 50 to 100 | 50 to 100 | 50 to 100 | – | –
O=C(NNc1ccccc1C(F)(F)F)c1cc(NC(=O)[C@H]2[C@H](c3cc(Cl)cc(Cl)c3)C2(Cl)Cl)ccc1Cl (relative stereo) [F2573, trans-2,2-Dichloro-N-(4-chloro-3-(2-(2-(trifluoromethyl)phenyl)hydrazine-1-carbonyl)phenyl)-3-(3,5-dichlorophenyl)cyclopropane-1-carboxamide] | 50 to 100 | 50 to 100 | 50 to 100 | 50 to 100 | – | –
Cc1cccc(N(C)NC(=O)c2cc(NC(=O)[C@H]3[C@H](c4cc(Cl)cc(Cl)c4)C3(Cl)Cl)ccc2Cl)c1 (relative stereo) [F2574, trans-2,2-Dichloro-N-(4-chloro-3-(2-methyl-2-(m-tolyl)hydrazine-1-carbonyl)phenyl)-3-(3,5-dichlorophenyl)cyclopropane-1-carboxamide] | 50 to 100 | 50 to 100 | 50 to 100 | 50 to 100 | – | –
Cc1ccc(NNC(=O)c2cc(NC(=O)[C@H]3[C@H](c4cc(Cl)cc(Cl)c4)C3(Cl)Cl)ccc2Cl)cc1 (relative stereo) [F2575, trans-2,2-Dichloro-N-(4-chloro-3-(2-(p-tolyl)hydrazine-1-carbonyl)phenyl)-3-(3,5-dichlorophenyl)cyclopropane-1-carboxamide] | 50 to 100 | 50 to 100 | 50 to 100 | 50 to 100 | – | –
O=C(NN=Cc1nccs1)c1cc(NC(=O)[C@H]2[C@H](c3cc(Cl)cc(Cl)c3)C2(Cl)Cl)ccc1Cl (relative stereo) [F3006, trans-2,2-Dichloro-N-(4-chloro-3-(2-(thiazol-2-ylmethylene)hydrazine-1-carbonyl)phenyl)-3-(3,5-dichlorophenyl)cyclopropane-1-carboxamide] | 50 to 100 | 50 to 100 | 50 to 100 | 50 to 100 | – | –
O=C(NN=CC1CC1)c1cc(NC(=O)[C@H]2[C@H](c3cc(Cl)cc(Cl)c3)C2(Cl)Cl)ccc1Cl (relative stereo) [F3007, trans-2,2-Dichloro-N-(4-chloro-3-(2-(cyclopropylmethylene)hydrazine-1-carbonyl)phenyl)-3-(3,5-dichlorophenyl)cyclopropane-1-carboxamide] | 50 to 100 | 50 to 100 | 50 to 100 | 50 to 100 | – | –
O=C(Nc1ccc(F)cc1)c1cc(NC(=O)[C@H]2[C@H](c3cc(Cl)cc(Cl)c3)C2(Cl)Cl)ccc1F (single isomer, unassigned) [F1374] | – | – | – | – | 50 to 100 | 50 to 100
O=C(Nc1ccc(F)cc1F)c1cc(NC(=O)[C@H]2[C@H](c3cc(Cl)cc(Cl)c3)C2(Cl)Cl)ccc1F (single isomer, unassigned) [F1375] | – | – | – | – | 50 to 100 | 50 to 100
O=C(Nc1c(F)cc(F)cc1F)c1cc(NC(=O)[C@H]2[C@H](c3cc(Cl)cc(Cl)c3)C2(Cl)Cl)ccc1Cl (single isomer, unassigned) [F1377] | – | – | – | – | 50 to 100 | 50 to 100
O=C(Nc1c(F)cc(F)cc1F)c1cc(NC(=O)[C@@H]2[C@@H](c3cc(Cl)cc(Cl)c3)C2(Cl)Cl)ccc1Cl (single isomer, unassigned) [F1378] | – | – | – | – | 0 to 50 | 50 to 100
